23 compounds from US20230002334A1, “TRPM8 MODULATORS” (Givaudan SA, priority 2019, published 2023) can be followed below.

Molecules are shown by their SMILES. Where two headings read alike, the source gives them in different places. Bounds are passed on as bounds.

Experiment [1] deals with panelists (mouth, mucosa). The experiment can be described thus: Sensory studies in aqueous solution (trained panel, swilling in the mouth). Type of experiment: in vivo, human. Particulars: 40 ppm in aqueous solution; for time of max cooling / Max. cooling: 20 mL swilled 60 seconds; for Max. cooling / Cooling after 1 h: averaged panel score on scale 0 to 10; for Cooling after 1 h: 1 h after swilling. How it is done:
The compounds as listed below in Table 2 were dissolved at a concenteration of 1 wt-% in propylene glycol. These solutions were then dispensed in appropriate quantities into deionized water containing 0.5 wt-% Poloxamer 407 (which is a hydrophilic non-ionic surfactant, e.g., commercially available from SigmaAldrich) and 0.25 wt-% Cremaphor® RH40 (obtained from BASF) as solubilizer, to obtain the desired final concentration of 40 ppm (parts per milion) of the respective compound.
A trained group of panelists evaluated the aqueous solutions containing test compound by swilling 20 mL of the solution in the mouth for 60 seconds, followed by spitting, without rinsing the mouth afterwards for the duration of the evaluation. Panelists evaluated and recorded the cooling performance as well as other sensorial and organoleptic attributes at different timepoints over a period of two hours. Cooling performance was rated on a scale from 0 to 10 with 0 being no effect and 10 being freezing. Scores were averaged for all panelists and the cooling intensity qualified as “N” for “none” (score of 0), “L” for “low” (score above 0, up to 1), “M” for “medium” (score above 1, up to 4), “S” for “strong” (score above 4, up to 8) and “E” for “extreme” (score above 8), which are provided in Table 2. […] All tasted samples developed cooling sensation starting during swilling (almost immediately upon contact with the mucosa) and before expectorating.

Another experiment concerns the target T1, hTRPM8 (Homo sapiens, UniProt Q7Z2W7).
T1 construct: expressed in transfected cells
The experiment can be described thus: Assay on TRPM8 modulators: calcium imaging (Fluo-4, Flexstation) in HEK293 cell line stably expressing hTRPM8. The format is cell-based. The gist of the method: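 Calcium influx monitored by Fluo-4 (2.7 μM with […] probenecid, 1 h 37 °C loading) in HEK293 cells stably expressing hTRPM8, in HEPES buffer pH 7.4 with 2 mM CaCl2. Fluorescence read 15 s before and 105 s after adding serial compound dilutions. Maximal activation relative to solvent and 31.6 μM menthol; EC50 from sigmoidal fit.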

Setting [2] is: HEK293 cells stably expressing hTRPM8, calcium influx, sigmoidal dose-response fit, read-out: EC50.

T1 sequence (Q7Z2W7 whole entry): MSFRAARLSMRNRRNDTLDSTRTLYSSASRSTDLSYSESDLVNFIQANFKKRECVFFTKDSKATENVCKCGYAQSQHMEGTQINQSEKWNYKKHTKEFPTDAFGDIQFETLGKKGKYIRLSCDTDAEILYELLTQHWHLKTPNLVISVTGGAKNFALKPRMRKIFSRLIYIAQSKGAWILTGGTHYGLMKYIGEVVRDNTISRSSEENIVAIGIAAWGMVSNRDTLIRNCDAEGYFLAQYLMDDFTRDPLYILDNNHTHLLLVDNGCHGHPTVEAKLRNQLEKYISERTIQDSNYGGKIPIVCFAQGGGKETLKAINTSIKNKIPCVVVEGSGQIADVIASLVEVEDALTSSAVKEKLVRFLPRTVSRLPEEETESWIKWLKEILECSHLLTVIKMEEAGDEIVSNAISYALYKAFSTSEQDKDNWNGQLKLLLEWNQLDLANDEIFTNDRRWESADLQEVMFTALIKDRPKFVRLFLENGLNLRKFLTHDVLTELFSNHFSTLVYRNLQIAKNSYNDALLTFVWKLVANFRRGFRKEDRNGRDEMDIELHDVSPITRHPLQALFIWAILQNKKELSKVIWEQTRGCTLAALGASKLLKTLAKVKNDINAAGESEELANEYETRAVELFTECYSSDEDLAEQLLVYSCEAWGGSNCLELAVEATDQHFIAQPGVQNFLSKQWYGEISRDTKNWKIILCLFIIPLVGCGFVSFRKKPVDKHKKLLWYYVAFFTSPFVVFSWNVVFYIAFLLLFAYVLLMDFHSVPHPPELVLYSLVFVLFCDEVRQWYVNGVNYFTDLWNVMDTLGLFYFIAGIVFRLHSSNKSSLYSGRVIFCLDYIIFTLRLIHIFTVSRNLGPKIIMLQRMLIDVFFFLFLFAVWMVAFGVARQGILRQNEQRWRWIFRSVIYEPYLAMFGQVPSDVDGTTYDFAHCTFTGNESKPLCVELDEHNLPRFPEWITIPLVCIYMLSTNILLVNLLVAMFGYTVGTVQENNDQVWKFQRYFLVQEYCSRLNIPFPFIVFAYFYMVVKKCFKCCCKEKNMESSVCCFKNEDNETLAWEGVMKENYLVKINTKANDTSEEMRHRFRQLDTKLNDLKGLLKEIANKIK

One may read the EC50 as the concentration at which the effect is half-maximal. As to `CCC[C@@H]1CC[C@@H]2[C@@H](C1)C(C)(C)ON2C(C)C` (racemic) [Compound 26, rac-(3aR,5R,7aR)-1-isopropyl-3,3-dimethyl-5-propyloctahydrobenzo[c]isoxazole], in experiment [1], the “time of max cooling” value turned out to be 10 min; the Max. cooling entry is listed as “S (“S” for “strong” (score above 4, up to 8))”; the “Cooling after 1 h” value was “M (“M” for “medium” (score above 1, up to 4))”. Besides, the EC50 on hTRPM8 (setting [2]) lay within 300 to 1000 nM.
For the compound `CC(C)=CC[C@H]1C[C@@H]2[C@@H]([C@@H](C)C1)N(C)OC2(C)C` (racemic) [Compound 50, rac-(3aR,5R,7S,7aR)-1,3,3,7-tetramethyl-5-(3-methylbut-2-en-1-yl)octahydrobenzo[c]isoxazole], in experiment [1], the “time of max cooling” value was determined as 10 min; the Max. cooling entry is given as “M (“M” for “medium” (score above 1, up to 4))”; the “Cooling after 1 h” value is “M (“M” for “medium” (score above 1, up to 4))”. For the same compound, the half-maximal effective concentration (EC50) on hTRPM8 lay in the range of 50 to 300 nM.
In the case of `CC(C)N1OC(C)(C)[C@@H]2C[C@H](c3ccccc3)C[C@H](C)[C@H]21` (racemic) [Compound 64, rac-(3aR,5R,7S,7aR)-1-isopropyl-3,3,7-trimethyl-5-phenyloctahydrobenzo[c]isoxazole], in experiment [1], the “time of max cooling” value is 10 min; the Max. cooling result was “M (“M” for “medium” (score above 1, up to 4))”; the “Cooling after 1 h” value was “M (“M” for “medium” (score above 1, up to 4))”. Further, the EC50 at hTRPM8 (setting [2]) was 50 to 300 nM.
As for `COc1ccccc1[C@H]1C[C@@H]2[C@@H]([C@@H](C)C1)N(C(C)C)OC2(C)C` (racemic) [Compound 66, rac-(3aR,5R,7S,7aR)-1-isopropyl-5-(2-methoxyphenyl)-3,3,7-trimethyloctahydrobenzo[c]isoxazole], in experiment [1], the “time of max cooling” value was 20 min; the Max. cooling result was “M (“M” for “medium” (score above 1, up to 4))”; the “Cooling after 1 h” value was “M (“M” for “medium” (score above 1, up to 4))”. For the same compound, at hTRPM8 (setting [2]), the EC50 is < 50 nM.
On to `COc1ccccc1[C@H]1C[C@@H]2[C@@H]([C@@H](C)C1)N(C)OC2(C)C` (racemic) [Compound 83, rac-(3aR,5R,7S,7aR)-5-(2-methoxyphenyl)-1,3,3,7-tetramethyloctahydrobenzo[c]isoxazole], for which, in experiment [1], the “time of max cooling” value was determined as 10 min; the Max. cooling result was “S (“S” for “strong” (score above 4, up to 8))”; the “Cooling after 1 h” value is “L (“L” for “low” (score above 0, up to 1))”. In addition, the EC50 on hTRPM8 (setting [2]) is < 50 nM.
On to `C[C@H]1C[C@@](C)(c2cc(F)cc(F)c2)C[C@@H]2[C@@H]1N(C)OC2(C)C` (racemic) [Compound 85, rac-(3aR,5R,7S,7aR)-5-(3,5-difluorophenyl)-1,3,3,5,7-pentamethyloctahydrobenzo[c]isoxazole], for which, in experiment [1], the “time of max cooling” value came to 10 min; the Max. cooling entry is reported as “M (“M” for “medium” (score above 1, up to 4))”; the “Cooling after 1 h” value was “M (“M” for “medium” (score above 1, up to 4))”. Also, the half-maximal effective concentration (EC50) at hTRPM8 (setting [2]) is < 50 nM.
Turning to `CC[C@@H]1C[C@H](CC)[C@@H]2[C@@H](C1)C(C)(C)ON2C(C)C` (racemic) [Compound 111, rac-(3aR,5R,7S,7aR)-5,7-diethyl-1-isopropyl-3,3-dimethyloctahydrobenzo[c]isoxazole], in experiment [1], the “time of max cooling” value was determined as 10 min; the Max. cooling entry is given as “M (“M” for “medium” (score above 1, up to 4))”; the “Cooling after 1 h” value is “L (“L” for “low” (score above 0, up to 1))”. Besides, at hTRPM8 (setting [2]), the 50% effective concentration (EC50) lay within 300 to 1000 nM.
In the case of `CCN1OC(C)(C)C2CC(CC=C(C)C)CC(C)C21` (racemic) [Compound 120, rac-(3aS,5S,7S,7aS)-1-ethyl-3,3,7-trimethy)-5-(3-methylbut-2-en-1-yl)octahydrobenzo[c]isoxazole], in experiment [1], the “time of max cooling” value amounted to 10 min; the Max. cooling result is on record as “M (“M” for “medium” (score above 1, up to 4))”; the “Cooling after 1 h” value is “L (“L” for “low” (score above 0, up to 1))”. The EC50 at hTRPM8 (setting [2]) fell in the range of 300 to 1000 nM.
As for `C[C@H]1C[C@@](C)(c2cccc(C#N)c2)C[C@@H]2[C@@H]1N(C)OC2(C)C` (racemic) [Compound 124, rac-3-((3aR,5R,7S,7aR)-1,3,3,5,7-pentamethyloctahydrobenzo[c]isoxazol-5-yl)benzonitrile], in experiment [1], the “time of max cooling” value was found to be 5 min; the Max. cooling result is given as “S (“S” for “strong” (score above 4, up to 8))”; the “Cooling after 1 h” value was “M (“M” for “medium” (score above 1, up to 4))”. For the same compound, the EC50 at hTRPM8 (setting [2]) is < 50 nM.
Take `CC(C)=CCC1(C)CC(C)C2C(C1)C(C)(C)ON2C` (centres unmarked) [Compound 1, 1,3,3,5,7-pentamethyl-5-(3-methylbut-2-en-1-yl)octahydrobenzo[c]isoxazole]: in experiment [1], the “time of max cooling” value was 20 min; the Max. cooling entry is “M (“M” for “medium” (score above 1, up to 4))”; the “Cooling after 1 h” value is listed as “M (“M” for “medium” (score above 1, up to 4))”. At hTRPM8 (setting [2]), the EC50 is 300 to 1000 nM.
As for `CC1CC(C)C2C(C1)C(C)(C)ON2C` (centres unmarked) [Compound 4, 1,3,3,5,7-pentamethyloctahydrobenzo[c]isoxazole], in experiment [1], the “time of max cooling” value was 3 min; the Max. cooling entry was “M (“M” for “medium” (score above 1, up to 4))”; the “Cooling after 1 h” value is reported as “L (“L” for “low” (score above 0, up to 1))”. For the same compound, on hTRPM8 (setting [2]), the EC50 lay in the range of 1000 to 35000 nM.
With `CC1=CC[C@H](C2CCC3C(C2)N(C)OC3(C)C)CC1` (stereo partly drawn) [Compound 7, 1,3,3-trimethyl-6-((R)-4-methylcyclohex-3-en-1-yl)octahydrobenzo[c]isoxazole], in experiment [1], the “time of max cooling” value was 10 min; the Max. cooling entry is reported as “M (“M” for “medium” (score above 1, up to 4))”; the “Cooling after 1 h” value is on record as “L (“L” for “low” (score above 0, up to 1))”. In addition, the EC50 on hTRPM8 (setting [2]) is 300 to 1000 nM.
For `CCN1OC(C)(C)C2CC(C)(CC=C(C)C)CC(C)C21` (centres unmarked) [Compound 9, 1-ethyl-3,3,5,7-tetramethyl-5-(3-methylbut-2-en-1-yl)octahydrobenzo[c]isoxazole], in experiment [1], the “time of max cooling” value turned out to be 10 min; the Max. cooling entry is on record as “M (“M” for “medium” (score above 1, up to 4))”; the “Cooling after 1 h” value is given as “M (“M” for “medium” (score above 1, up to 4))”. Further, the EC50 on hTRPM8 (setting [2]) lay within 50 to 300 nM.
In the case of `CC1CC(C)C2C(C1)C(C)(C)ON2C(C)C` (centres unmarked) [Compound 12, 1-isopropyl-3,3,5,7-tetramethyloctahydrobenzo[c]isoxazole], in experiment [1], the “time of max cooling” value was 5 min; the Max. cooling entry is “M (“M” for “medium” (score above 1, up to 4))”; the “Cooling after 1 h” value is “L (“L” for “low” (score above 0, up to 1))”. Moreover, the 50% effective concentration (EC50) at hTRPM8 (setting [2]) lay in the range of 300 to 1000 nM.
As to `CC1CC(C)(c2ccccc2C#N)CC2C1N(C)OC2(C)C` (centres unmarked) [Compound 14, 2-(1,3,3,5,7-pentamethyloctahydrobenzo[c]isoxazol-5-yl)benzonitrile], the 50% effective concentration (EC50) on hTRPM8 (setting [2]) lay within 50 to 300 nM.
Turning to `Cc1c(C#N)cccc1C1(C)CC(C)C2C(C1)C(C)(C)ON2C` (centres unmarked) [Compound 15, 2-methyl-3-(1,3,3,5,7-pentamethyloctahydrobenzo[c]isoxazol-5-yl)benzonitrile], the half-maximal effective concentration (EC50) on hTRPM8 (setting [2]) lay in the range of 300 to 1000 nM.
The same measure, in the same setting: the result for `COc1ccc(C2(C)CC(C)C3C(C2)C(C)(C)ON3C)c(OC)c1` (centres unmarked) [Compound 16, 5-(2,4-dimethoxyphenyl)-1,3,3,5,7-pentamethyloctahydrobenzo[c]isoxazole] reads 300 to 1000 nM; that for `COc1ccc(OC)c(C2(C)CC(C)C3C(C2)C(C)(C)ON3C)c1` (centres unmarked) [Compound 17, 5-(2,5-dimethoxyphenyl)-1,3,3,5,7-pentamethyloctahydrobenzo[c]isoxazole], 50 to 300 nM.
As to `COc1cccc(C2(C)CC(C)C3C(C2)C(C)(C)ON3C)n1` (centres unmarked) [Compound 18, 5-(6-methoxypyridin-2-yl)-1,3,3,5,7-pentamethyloctahydrobenzo[c]isoxazole], the EC50 at hTRPM8 (setting [2]) is 300 to 1000 nM.
For `CCC1CC(CC)C2C(C1)C(C)(C)ON2C` (centres unmarked) [Compound 19, 5,7-diethyl-1,3,3-trimethyloctahydrobenzo[c]isoxazole], the concentration for a half-maximal effect (EC50) on hTRPM8 (setting [2]) was in the range of 1000 to 35000 nM.
On the same count and under the same terms, the result for `CCC1(C)CC(C)C2C(C1)C(C)(C)ON2C` (centres unmarked) [Compound 20, 5-ethyl-1,3,3,5,7-pentamethyloctahydrobenzo[c]isoxazole] reads 1000 to 35000 nM.
The same measure, in the same setting: next, `CC(C)CCC1CC(C)C2C(C1)C(C)(C)OC(=O)N2C` (centres unmarked) [Compound 21, 6-isopentyl-1,4,4,8-tetramethyloctahydro-2H-benzo[d][1,3]oxazin-2-one]: 1000 to 35000 nM; `CC(C)CCC1CC(C)C2C(C1)C(C)(C)OCN2C` (centres unmarked) [Compound 22, 6-isopentyl-1,4,4,8-tetramethyloctahydro-2H-benzo[d][1,3]oxazine]: 1000 to 35000 nM.
